Common to all, as to test: Hole test, inhibiting areola diameter, medium DST agar
Assay type in all cases: cell-based

The test system of one assay is E. coli T 7. Further details: unit not given here. The text has this:
(§1) Activity against the germs listed below is found in vitro, on the basis of the diameter of the inhibiting areola.

For the next assay, the system named is E. coli 14.
Text: as §1

The test system of another assay is Klebs. 57 USA. To be noted: 100 ug/ml.
Text: as §1

The subject of another assay is Prot. 1017. To be noted: 1000 ug/ml.
Text: as §1

Another assay relates to Staph. 133. To be noted: 1000 ug/ml.
Text: as §1

Starred links: 1 amine or outer side, 2 acyl side, 3 side chain; linkers in the order of their positions; H or OH if unused. Non-standard residues stand in square brackets, D forms with d. Residues, ends and D or L forms follow the SMILES beside them. ξ: configuration not given here. X1 = Cn1c(=NC(N)=O)ccn(C2SC(C(O)C(N[*:1])C(=O)[*:2])C(O)C2O)c1=O; Orn(N5-OH,N5-Ac) = CC(=O)N(O)CCC[C@H](N)C(=O)O; ξT = CC(O)C(N)C(=O)O; ξA = CC(N)C(=O)O

As to `CC(=O)N(O)CCC[C@H](NC(=O)[C@H](CCCN(O)C(C)=O)NC(=O)[C@@H](N)CCCN(O)C(C)=O)C(=O)NC(C)C(=O)NC(C(=O)O)C(O)C1SC(n2ccc(=NC(N)=O)n(C)c2=O)C(O)C1O` (some centres unmarked) [Compound 9, Peptidyl-nucleoside] (H-[Orn(N5-OH,N5-Ac)][Orn(N5-OH,N5-Ac)][Orn(N5-OH,N5-Ac)][ξA][X1]-OH), the “Inhibiting areola diameter E. coli T 7” value in the assay on E. coli T 7 (10 ug/ml) was 28; in the assay on E. coli T 7 (100 ug/ml), 34. The “Inhibiting areola diameter E. coli 14” value was 30 in the assay on E. coli 14 (10 ug/ml) and 34 in the assay with E. coli 14 (100 ug/ml).

Regarding `CC(=O)N(O)CCC[C@H](N)C(=O)NC(C(=O)O)C(O)C1SC(n2ccc(=NC(N)=O)n(C)c2=O)C(O)C1O` (some centres unmarked) [Compound 11], the “Inhibiting areola diameter E. coli T 7” value is given as 13 in the assay on E. coli T 7 (10 ug/ml) and 18 in the assay with E. coli T 7 (100 ug/ml). The “Inhibiting areola diameter E. coli 14” value with E. coli 14 (100 ug/ml) amounted to 13. Also, the “Inhibiting areola diameter Klebs. 57 USA” value with Klebs. 57 USA came out at 18.

On to `CC(=O)N(O)CCC[C@H](NC(=O)[C@H](CCCN(O)C(C)=O)NC(=O)[C@@H](N)CCCN(O)C(C)=O)C(=O)NC(C(=O)O)C(O)C1SC(n2ccc(=NC(N)=O)n(C)c2=O)C(O)C1O` (some centres unmarked) [Compound 13], for which, in the assay with E. coli T 7 (1000 ug/ml), the “Inhibiting areola diameter E. coli T 7” value is 19. In addition, in the assay with E. coli 14 (1000 ug/ml), the “Inhibiting areola diameter E. coli 14” value is recorded as 20. In addition, in the assay on Prot. 1017, the “Inhibiting areola diameter Prot. 1017” value came to 20.

As for `CC(=O)N(O)CCC[C@H](NC(=O)[C@H](CCCN(O)C(C)=O)NC(=O)[C@@H](N)CCCN(O)C(C)=O)C(=O)NC(C(=O)NC(C(=O)O)C(O)C1SC(n2ccc(=NC(N)=O)n(C)c2=O)C(O)C1O)C(C)O` (some centres unmarked) [Compound 20] (H-[Orn(N5-OH,N5-Ac)][Orn(N5-OH,N5-Ac)][Orn(N5-OH,N5-Ac)][ξT][X1]-OH), the “Inhibiting areola diameter E. coli T 7” value with E. coli T 7 (100 ug/ml) is 14; with E. coli T 7 (1000 ug/ml), 15. Further, the “Inhibiting areola diameter E. coli 14” value is reported as 13 in the assay on E. coli 14 (100 ug/ml) and 14 in the assay on E. coli 14 (1000 ug/ml). Besides, in the assay on Prot. 1017, the “Inhibiting areola diameter Prot. 1017” value amounted to 17. Moreover, the “Inhibiting areola diameter Staph. 133” value in the assay with Staph. 133 amounted to 25.

Regarding `CC(=O)N(O)CCC[C@H](NC(=O)[C@H](CCCN(O)C(C)=O)NC(=O)[C@@H](N)CCCN(O)C(C)=O)C(=O)NC(C(=O)O)C(O)C1SC(n2ccc(=O)n(C)c2=O)C(O)C1O` (some centres unmarked) [Compound 24], the “Inhibiting areola diameter E. coli T 7” value with E. coli T 7 (100 ug/ml) is given as 18. In the assay with E. coli 14 (1000 ug/ml), the “Inhibiting areola diameter E. coli 14” value came out at 18. Also, the “Inhibiting areola diameter Prot. 1017” value in the assay with Prot. 1017 was 18.

The values are drawn from US4670542A, “New antibiotics, preparation and use of and intermediates therefor” (Bayer Aktiengesellschaft, priority 1983, dated 1987).
